We go through four compounds from patent publication US11692028B2, “Map kinase pathway targets for the treatment of Marfan syndrome” (The Johns Hopkins University, priority 2017, dated 2023).

Assay [1] concerns 129 MFS mice (Fbn1C1039G/+ on 129S6/SvEvTac background). The assay can be described thus: Aortic root growth by echocardiography in drug-treated 129 MFS mice. Type of assay: in vivo, mouse. The following applies: for aortic root growth: FIG. 2B. The procedure: Losartan was dissolved in drinking water and filtered to reach a concentration of 0.6 g/L, giving an estimated daily dose of 60 mg/kg/day, as described previously (Habashi, J. P. et al. Science 312, 117-21 (2006)). Mice were started on losartan at 2 months of age and continued for 8 months. Placebo-treated animals received regular drinking water. RDEA119 was reconstituted in 10% 2-hydroxypropyl-beta-cyclodextrin (Sigma-Aldrich, Mo., USA) dissolved in PBS, and administered twice daily by oral gavage at a dose of 25 mg/kg, as described previously (Holm, T. M. et al. Science 15, 358-61 (2011)). Treatment was initiated at 2 months of age and continued for 2 months. 10% 2-hydroxypropyl-beta-cyclodextrin dissolved in PBS was administered as a control. Erlotinib was reconstituted in 1% methylcellulose (Sigma-Aldrich) dissolved in PBS, and administered daily by oral gavage at a dose of 50 mg/kg. Treatment was initiated at 2 months of age and continued for 2 months. 1% methylcellulose dissolved in PBS was administered as a control.
Mouse echocardiography: Nair hair removal cream was used on all mice the day prior to echocardiography. All echocardiograms were performed on awake, unsedated mice using the VisualSonics Vevo 2100 imaging system and a 30 MHz transducer (Fujifilm VisualSonics, ON, Canada). The aorta was imaged using a parasternal, long-axis view. Three separate measurements of the maximal internal dimension at the sinus of Valsalva and proximal ascending aorta were made from distinct captured images and averaged. All imaging and measurements were performed blinded to genotype and treatment arm.

Assay [2] relates to pSmad2, pErk1/2, pp38, pEgfr. The assay is described as follows: Western blot analysis of the aortic root of treated 129 MFS mice. Type of assay: in vivo, mouse. The following applies: for signaling cascade activation in aortic root (Western blot): treated 129 MFS mice at 4 months of age, FIG. 2E, 3G. The protocol:
Losartan was dissolved in drinking water and filtered to reach a concentration of 0.6 g/L, giving an estimated daily dose of 60 mg/kg/day, as described previously (Habashi, J. P. et al. Science 312, 117-21 (2006)). Mice were started on losartan at 2 months of age and continued for 8 months. Placebo-treated animals received regular drinking water. RDEA119 was reconstituted in 10% 2-hydroxypropyl-beta-cyclodextrin (Sigma-Aldrich, Mo., USA) dissolved in PBS, and administered twice daily by oral gavage at a dose of 25 mg/kg, as described previously (Holm, T. M. et al. Science 15, 358-61 (2011)). Treatment was initiated at 2 months of age and continued for 2 months. 10% 2-hydroxypropyl-beta-cyclodextrin dissolved in PBS was administered as a control. Erlotinib was reconstituted in 1% methylcellulose (Sigma-Aldrich) dissolved in PBS, and administered daily by oral gavage at a dose of 50 mg/kg. Treatment was initiated at 2 months of age and continued for 2 months. 1% methylcellulose dissolved in PBS was administered as a control. Mice that were sacrificed for Western Blot analysis had their proximal ascending aortas immediately dissected, flash frozen in liquid nitrogen and stored at -80° C. until further processing. Protein was extracted using the reagents and protocol from a Total Protein Extraction Kit containing protease inhibitor and Protein Phosphatase Inhibitor Cocktail (Millipore, Mass., USA). Aortas were homogenized using a pellet pestle motor (Kimble-Kontes, N.J., USA) as per the extraction kit protocol. Samples were then stored once more at -80° C. until Western blot analysis was performed. […] PBS-T). Equal protein loading of samples was determined by a protein assay (Bio-Rad, Calif., USA) and confirmed by probing with an antibody against β-Actin (Sigma-Aldrich #A5316). […] Blots were then washed in PBS-T, developed using SuperSignal West Femto HRP substrate (Pierce Scientific, Ill., USA), exposed to BioMax Scientific Imaging Film (Sigma), and quantified using ImageJ analysis software (NIH, Md., USA).

Assay [3] deals with Fbn1C1039G/+ mice (MFS mice). The conditions noted are these: cited from earlier work; for aortic disease in MFS mice: literature (Habashi 2006; Holm 2011; Habashi 2011; Doyle 2015).
In assay [4] the test system is TGFβ signal transduction (p-SMAD2). The conditions noted are these: measured by p-SMAD2 western blot analysis; cited from earlier work.
For assay [5], the system named is TGFβ induction in vascular tissues. The following applies: literature; cited from earlier work.
For assay [6], the system named is 129 MFS mice (Fbn1C1039G/+ on 129S6/SvEvTac background). The assay is described as follows: Survival / premature lethality from aortic dissection in 129 MFS mice. Type of assay: in vivo, mouse. The following applies: losartan, up to 8 months of treatment, FIG. 2C. The source says: Mice were cared for under compliance with the Animal Care and Use Committee of the Johns Hopkins University School of Medicine. Fbn1^C1039G/+ mice on a pure C57BL/6J background were already onsite. Mice on a pure 129S6/SvEvTac background were obtained from Taconic Biosciences (Rensselaer County, N.Y., USA). The Fbn1^C1039G/+ mice on a pure C57BL/6J background were bred into a pure 129S6/SvEvTac background and backcrossed for >10 generations. Mice haploinsufficient or knockout for Mmp17 (B6.129P2-Mmp17^rm1Dg^en/J; #005824), Map2k6 (B6.129S1-Map2k6^tm1Flv/J; #008382) and Map3k4 (B6.129S6-Map3k4^tm1Flv/J; #008375) were obtained from the Jackson Laboratory (Bar Harbor, Me., USA), and bred to Fbn1C1039G/+ mice. Animals were checked daily for death and all mice found dead were immediately autopsied to assess for evidence of aortic dissection. Mice that were sacrificed were done so using a lethal dose of ketamine and acepromazine (1 ml of 10 mg/ml acepromazine in 10 mls of 100 mg/ml ketamine; MWI Vet, ID, USA). At the time of sacrifice, mice underwent immediate laparotomy and descending abdominal aortic transection. Phosphate buffered saline (PBS) was infused through the right and left ventricles to flush out the blood. […]

For assay [7], the system named is patients with MFS. The conditions noted are these: literature (Lacro et al., NEJM 371, 2061); cited from earlier work.
The mark [8] stands for this setting: oral gavage from 2 to 4 months of age (RDEA119 25 mg/kg twice daily; erlotinib 50 mg/kg daily), 3F.

Consider `COc1cc(F)c(F)c(Nc2ccc(I)cc2F)c1NS(=O)(=O)C1(C[C@H](O)CO)CC1` [RDEA119], for which the “all aortic parameters (aortic root size, post-natal aortic root growth, premature lethality from dissection)” value in assay [1] is “fully rescued”. Moreover, the aortic root growth entry in assay [1] (setting [8]) is “reduced aortic root growth to a rate equal to that of WT animals”. Moreover, the “signaling cascade activation in aortic root (Western blot)” value in assay [2] was “selective reduction in noncanonical (Erk1/2, p38) cascades”. In assay [3], the “aortic disease in MFS mice” value is “can suppress aortic disease in MFS mice”.
Take `Fc1ccc(Cl)cc1-c1nc(Nc2ccncc2)c2nccnc2n1` [SD-208]: in assay [4], the TGFβ signal transduction entry is listed as “inhibits TGFβ signal transduction in a dose-dependent fashion”.
For the compound `C#Cc1cccc(Nc2ncnc3cc(OCCOC)c(OCCOC)cc23)c1` [erlotinib], the aortic root growth entry in assay [1] (setting [8]) is “abrogated aortic root growth”. In assay [2], the “signaling cascade activation in aortic root (Western blot)” value was “reduced activation of Egfr, Erk1/2, and p38”. Also, the “Ang-II infusion-mediated TGFβ induction in vascular tissues” value in assay [5] is listed as “can abrogate Ang-II infusion-mediated TGFβ induction in vascular tissues”.
Consider `CCCCc1nc(Cl)c(CO)n1Cc1ccc(-c2ccccc2-c2nn[nH]n2)cc1` [losartan], for which the “all aortic parameters (aortic root size, post-natal aortic root growth, premature lethality from dissection)” value in assay [1] is on record as “fully rescued”. In addition, the aortic root growth result in assay [1] (losartan 0.6 g/L in drinking water (est. 60 mg/kg/day), growth from 2 to 6 months) is “reduced aortic root growth to a rate equal to that of WT animals”. The “premature lethality (survival)” value in assay [6] is “ameliorated premature lethality”. For the same compound, the “TGFβ signaling cascades in aortic root (Western blot)” value in assay [2] (losartan-treated 129 MFS mice at 10 months of age, FIG. 2D) was “reduction in both canonical (Smad2) and noncanonical (Erk1/2, p38) TGFβ signaling cascades”. Besides, the “multiple phenotypic manifestations (aortic aneurysm, developmental emphysema, mitral valve disease, skeletal muscle myopathy)” value in assay [3] (Fbn1C1039G/+ mice, in association with blunted Smad2/3 activation, literature) is “can be attenuated”. Further, the “aortic disease in MFS mice” value in assay [3] is given as “can suppress aortic disease in MFS mice”. Also, the “aortic root growth in patients with MFS” value in assay [7] was “some degree of rescue of aortic root growth”.
